Tests used:
Assay type in all cases: in vivo
Lolium multiflorum Lam. = experiment: Test Example 4: herbicidal effect by soil treatment (symbol K); conditions: application herbicide amount 320 g/ha
Procedure, shortened: (§1)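 Seeds were sown in sterilized diluvial soil, covered with about 1.5 cm of soil, and the soil surface was sprayed with a water-diluted emulsion of the compound at a predetermined rate. Plants grew in a greenhouse at 25° C. to 30° C.; effects were scored visually 3 weeks after application.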

rapeseed = experiment: Test Example 4: effect on crop by soil treatment (symbol g); conditions: application herbicide amount 320 g/ha
Procedure, shortened: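 Crop seeds, among them rice, wheat, beet and rapeseed, were sown in sterilized diluvial soil and covered with about 1.5 cm of soil. Boxes were kept in a greenhouse at 25° C. to 30° C. for plant growth.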

[1] = tested on: Echinochloa crus-galli var. crus-galli; experiment: Test Example 4: herbicidal effect by soil treatment (symbol H); conditions: application herbicide amount 320 g/ha
Procedure, shortened: as §1

Veronica persica = experiment: Test Example 5: herbicidal effect by foliage application, plastic box (symbol R); conditions: 320 g/ha, 3 weeks after application
Procedure, shortened: (§2)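 Effect is rated 3 weeks after a foliar spray of water-diluted emulsion concentrate at a predetermined herbicide amount. Plants had grown 14 days in a 25° C. to 30° C. greenhouse from seed in sterilized diluvial soil.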

Scirpus juncoides = experiment: Test Example 2: herbicidal activity, application during weed generation in submerged conditions (symbol B); conditions: Table 23; application herbicide amount 320 g/ha; grade 0-5 by criteria of Test Example 1
Procedure, shortened: (§3)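 Seeds sown in flooded alluvial soil (4 cm water) were grown in a 25-30° C greenhouse. At the one- to two-leaf stage, diluted emulsion of compound was applied to the water surface at a predetermined rate. Effect was scored 3 weeks later.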

Stellaria media = experiment: Test Example 5: herbicidal effect by foliage application, plastic box (symbol P); conditions: 320 g/ha, 3 weeks after application
Procedure, shortened: as §2

[2] = tested on: Echinochloa crus-galli var. crus-galli; experiment: Test Example 3: herbicidal effect by foliage application, Wagner pot (symbol H); conditions: application herbicide amount 320 g/ha
Procedure, shortened: (§4)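 Plants sown in submerged alluvial soil (water depth 0.1–0.5 cm) in a 25–30 °C greenhouse and grown 14 days. An emulsion of the compound diluted in water to a set herbicide amount was sprayed uniformly on foliage. Effect on each plant scored 3 weeks after application.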

Leptochloa chinensis = experiment: Test Example 3: herbicidal effect by foliage application, Wagner pot (symbol D); conditions: application herbicide amount 320 g/ha
Procedure, shortened: as §4

Digitaria ciliaris [3] = experiment: Test Example 4: herbicidal effect by soil treatment (symbol F); conditions: application herbicide amount 320 g/ha
Procedure, shortened: as §1

Apera spica-venti = experiment: Test Example 4: herbicidal effect by soil treatment (symbol L); conditions: application herbicide amount 320 g/ha
Procedure, shortened: as §1

beet = experiment: Test Example 5: effect on crop by foliage application, plastic box (symbol f); conditions: 320 g/ha, 3 weeks after application
Procedure, shortened: (§5)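 Crop and weed seeds sown in spots in sterilized diluvial soil in plastic boxes and covered with about 1.5 cm soil. Plants raised in a greenhouse at 25° C. to 30° C. for foliar application.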

Amaranthus retroflexus [4] = experiment: Test Example 5: herbicidal effect by foliage application, plastic box (symbol N); conditions: 320 g/ha, 3 weeks after application
Procedure, shortened: as §2

wheat = experiment: Test Example 5: effect on crop by foliage application, plastic box (symbol e); conditions: 320 g/ha, 3 weeks after application
Procedure, shortened: as §5

Abutilon theophrasti = experiment: Test Example 4: herbicidal effect by soil treatment (symbol M); conditions: application herbicide amount 320 g/ha
Procedure, shortened: as §1

rice plant = experiment: Test Example 5: effect on crop by foliage application, plastic box (symbol b); conditions: 320 g/ha, 3 weeks after application
Procedure, shortened: as §5

Avena fatua = experiment: Test Example 5: herbicidal effect by foliage application, plastic box (symbol I); conditions: 320 g/ha, 3 weeks after application
Procedure, shortened: as §2

[5] = tested on: Echinochloa oryzacola Vasing.; experiment: Test Example 2: herbicidal activity, application during weed generation in submerged conditions (symbol A); conditions: Table 23; application herbicide amount 320 g/ha; grade 0-5 by criteria of Test Example 1
Procedure, shortened: as §3

Amaranthus retroflexus [6] = experiment: Test Example 4: herbicidal effect by soil treatment (symbol N); conditions: application herbicide amount 320 g/ha
Procedure, shortened: as §1

Chenopodium album = experiment: Test Example 5: herbicidal effect by foliage application, plastic box (symbol O); conditions: 320 g/ha, 3 weeks after application
Procedure, shortened: as §2

Digitaria ciliaris [7] = experiment: Test Example 5: herbicidal effect by foliage application, plastic box (symbol F); conditions: 320 g/ha, 3 weeks after application
Procedure, shortened: as §2

Compound | K: Lolium multiflorum Lam., herbicidal effect grade (Lolium multiflorum Lam.) | g: rapeseed, effect on crop grade (rapeseed) | H: Echinochloa crus-galli var. crus-galli, herbicidal effect grade [1] | R: Veronica persica, herbicidal effect grade (Veronica persica) | Herbicidal effect grade, B: Scirpus juncoides (Scirpus juncoides) | P: Stellaria media, herbicidal effect grade (Stellaria media) | herbicidal effect on H (Echinochloa crus-galli var. crus-galli), grade 0-5 [2] | herbicidal effect on D (Leptochloa chinensis), grade 0-5 (Leptochloa chinensis) | F: Digitaria ciliaris, herbicidal effect grade (Digitaria ciliaris [3]) | L: Apera spica-venti, herbicidal effect grade (Apera spica-venti) | f: beet, effect on crop grade (beet) | N: Amaranthus retroflexus, herbicidal effect grade (Amaranthus retroflexus [4]) | e: wheat, effect on crop grade (wheat) | M: Abutilon theophrasti, herbicidal effect grade (Abutilon theophrasti) | b: directly sowed rice plant, effect on crop grade (rice plant) | I: Avena fatua, herbicidal effect grade (Avena fatua) | Herbicidal effect grade, A: Echinochloa oryzacola Vasing. [5] | N: Amaranthus retroflexus, herbicidal effect grade (Amaranthus retroflexus [6]) | O: Chenopodium album, herbicidal effect grade (Chenopodium album) | F: Digitaria ciliaris, herbicidal effect grade (Digitaria ciliaris [7])
Cc1cc(C)c(C2=C(O)CC(CC(=O)C(C)C)C2=O)c(C)c1 (stereo not drawn) [2-016] | 5 (Herbicidal ratio of 90% or more (almost completely withered)) | 2 (Herbicidal ratio of 20% or higher and lower than 40%) | 5 (Herbicidal ratio of 90% or more (almost completely withered)) | 0 (Herbicidal ratio of 5% or lower (almost no effect)) | 0 (Herbicidal ratio of 5% or lower (almost no effect)) | 0 (Herbicidal ratio of 5% or lower (almost no effect)) | 5 (Herbicidal ratio of 90% or more (almost completely withered)) | 5 (Herbicidal ratio of 90% or more (almost completely withered)) | 5 (Herbicidal ratio of 90% or more (almost completely withered)) | 2 (Herbicidal ratio of 20% or higher and lower than 40%) | 0 (Herbicidal ratio of 5% or lower (almost no effect)) | 3 (Herbicidal ratio of 40% or higher and lower than 70%) | 0 (Herbicidal ratio of 5% or lower (almost no effect)) | 0 (Herbicidal ratio of 5% or lower (almost no effect)) | 5 (Herbicidal ratio of 90% or more (almost completely withered)) | 4 (Herbicidal ratio of 70% or higher and lower than 90%) | 4 (Herbicidal ratio of 70% or higher and lower than 90%) | 0 (Herbicidal ratio of 5% or lower (almost no effect)) | 0 (Herbicidal ratio of 5% or lower (almost no effect)) | 5 (Herbicidal ratio of 90% or more (almost completely withered))
CCCC(=O)C(C(=O)OC)C1CC(O)=C(c2c(C)cc(C)cc2C)C1=O (stereo not drawn) [2-020] | 4 (Herbicidal ratio of 70% or higher and lower than 90%) | 0 (Herbicidal ratio of 5% or lower (almost no effect)) | 4 (Herbicidal ratio of 70% or higher and lower than 90%) | 0 (Herbicidal ratio of 5% or lower (almost no effect)) | 0 (Herbicidal ratio of 5% or lower (almost no effect)) | 0 (Herbicidal ratio of 5% or lower (almost no effect)) | 2 (Herbicidal ratio of 20% or higher and lower than 40%) | 2 (Herbicidal ratio of 20% or higher and lower than 40%) | 5 (Herbicidal ratio of 90% or more (almost completely withered)) | 0 (Herbicidal ratio of 5% or lower (almost no effect)) | 0 (Herbicidal ratio of 5% or lower (almost no effect)) | 0 (Herbicidal ratio of 5% or lower (almost no effect)) | 0 (Herbicidal ratio of 5% or lower (almost no effect)) | 0 (Herbicidal ratio of 5% or lower (almost no effect)) | 4 (Herbicidal ratio of 70% or higher and lower than 90%) | 0 (Herbicidal ratio of 5% or lower (almost no effect)) | 1 (Herbicidal ratio of 5% or higher and lower than 20%) | 1 (Herbicidal ratio of 5% or higher and lower than 20%) | 0 (Herbicidal ratio of 5% or lower (almost no effect)) | 3 (Herbicidal ratio of 40% or higher and lower than 70%)
CCCC(=O)CC1CC(O)=C(c2c(C)cc(C)cc2C)C1=O (stereo not drawn) [2-021] | 5 (Herbicidal ratio of 90% or more (almost completely withered)) | 1 (Herbicidal ratio of 5% or higher and lower than 20%) | 4 (Herbicidal ratio of 70% or higher and lower than 90%) | 0 (Herbicidal ratio of 5% or lower (almost no effect)) | 2 (Herbicidal ratio of 20% or higher and lower than 40%) | 0 (Herbicidal ratio of 5% or lower (almost no effect)) | 5 (Herbicidal ratio of 90% or more (almost completely withered)) | 3 (Herbicidal ratio of 40% or higher and lower than 70%) | 5 (Herbicidal ratio of 90% or more (almost completely withered)) | 0 (Herbicidal ratio of 5% or lower (almost no effect)) | 0 (Herbicidal ratio of 5% or lower (almost no effect)) | 0 (Herbicidal ratio of 5% or lower (almost no effect)) | 0 (Herbicidal ratio of 5% or lower (almost no effect)) | 1 (Herbicidal ratio of 5% or higher and lower than 20%) | 4 (Herbicidal ratio of 70% or higher and lower than 90%) | 3 (Herbicidal ratio of 40% or higher and lower than 70%) | 5 (Herbicidal ratio of 90% or more (almost completely withered)) | 2 (Herbicidal ratio of 20% or higher and lower than 40%) | 0 (Herbicidal ratio of 5% or lower (almost no effect)) | 4 (Herbicidal ratio of 70% or higher and lower than 90%)

Reference: patent US11000033B2, “Ketone or oxime compound, and herbicide” (NISSAN CHEMICAL CORPORATION, priority 2014, dated 2021)
